PMC6650409, “Modeling the binding of diverse ligands within the Ah receptor ligand binding domain” (Scientific Reports, 2019)
Residue numbers refer to the chain shown, from its start.

Assays:
H331A mutant AhR = molecular target: T1, H331A mutant AhR (Mus musculus, UniProt P30561, H331A); test: [3H]TCDD competitive ligand binding, H331A mutant AhR
T1 construct: made in house; host or cells: in vitro, Promega TNT Quick rabbit reticulocyte lysate
T1 sequence (P30561 10-848 H331A): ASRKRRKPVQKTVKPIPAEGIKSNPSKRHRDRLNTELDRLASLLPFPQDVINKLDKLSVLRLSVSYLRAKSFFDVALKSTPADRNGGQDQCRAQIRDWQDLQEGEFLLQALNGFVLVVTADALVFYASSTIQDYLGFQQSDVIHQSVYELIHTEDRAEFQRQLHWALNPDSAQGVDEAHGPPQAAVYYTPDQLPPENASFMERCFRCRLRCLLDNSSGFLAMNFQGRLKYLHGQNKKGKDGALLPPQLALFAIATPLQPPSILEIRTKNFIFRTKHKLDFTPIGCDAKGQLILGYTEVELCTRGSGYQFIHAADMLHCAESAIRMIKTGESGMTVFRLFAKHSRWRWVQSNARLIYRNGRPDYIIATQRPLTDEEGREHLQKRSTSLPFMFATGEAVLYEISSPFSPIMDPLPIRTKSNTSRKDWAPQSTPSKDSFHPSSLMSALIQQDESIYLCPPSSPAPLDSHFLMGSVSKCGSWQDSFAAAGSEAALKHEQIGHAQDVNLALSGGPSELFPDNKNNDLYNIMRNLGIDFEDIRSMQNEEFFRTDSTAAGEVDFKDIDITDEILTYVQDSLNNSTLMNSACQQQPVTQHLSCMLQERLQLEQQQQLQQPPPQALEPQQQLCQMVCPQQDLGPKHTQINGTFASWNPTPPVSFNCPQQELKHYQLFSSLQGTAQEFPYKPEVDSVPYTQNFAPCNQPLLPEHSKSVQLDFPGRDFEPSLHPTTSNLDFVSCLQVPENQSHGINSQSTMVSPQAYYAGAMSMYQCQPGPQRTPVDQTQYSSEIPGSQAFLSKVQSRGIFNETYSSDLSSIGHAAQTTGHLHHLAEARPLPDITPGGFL
Method: The mouse AhR (mAhR) and ARNT (mARNT) expression plasmids, mβAhR/pcDNA3 and mβArnt/pcDNA3, have been previously described. Point mutations of mβAhR/pcDNA3 were carried out using the QuikChange Lightning Mutagenesis Kit (Agilent Technologies) and all constructs were verified by sequencing.
[^3H]TCDD specific binding to wild-type or mutant mAhRs synthesized in vitro using the Promega TNT Quick coupled transcription/translation rabbit reticulocyte lysate kit (Madison, WI) was carried out as previously described. [^3H]TCDD specific binding was determined by subtracting the amount of [^3H]TCDD bound to unprogrammed lysate (nonspecific binding) from the total amount of [^3H]TCDD binding to lysate containing in vitro expressed AhR. The amount of [^3H]TCDD specific binding remaining in the presence of the indicated competitor chemical was expressed as a percent of the total [^3H]TCDD specific binding. The relative binding affinity (IC50) of each chemical was determined from concentration-dependent competitive inhibition curves obtained using [^3H]TCDD and increasing concentrations of each test chemical and the mean IC50 value was determined using three-parameter non-linear regression.

Q377A mutant AhR = tested on: Q377A mutant AhR; design: method as in PMID 17223691; settings: mutation of Q377 to alanine; cited from earlier work
S359A mutant AhR = molecular target: T2, S359A mutant AhR (Mus musculus, UniProt P30561, S359A); design: method as in PMID 21981577; settings: S359A mutation; cited from earlier work
T2 construct: made in house; host or cells: in vitro, Promega TNT Quick rabbit reticulocyte lysate
T2 sequence (P30561 10-848 S359A): T1 sequence (P30561 10-848 H331A) with A322H, S350A

SMILES | change of relative binding affinity versus wild-type AhR (H331A mutant AhR; H331A mutation, in words) | IC50 (H331A mutant AhR; Table S6, AhR mutant H331A) [nM] | TCDD specific binding (Q377A mutant AhR) | TCDD binding activity (S359A mutant AhR)
Cc1ccc2cc3c(ccc4ccccc43)c3c2c1CC3 [3MC, 3-methylcholanthrene] | dramatically increased | 0.141 | – | –
Clc1cc2c(cc1Cl)Oc1cc(Cl)c(Cl)cc1O2 [TCDD, 2,3,7,8-tetrachlorodibenzo-p-dioxin] | – | – | abolish | only partially affected
